Consider 13 compounds from patent US8822449B2, “Substituted aminoindanes and analogs thereof, and the pharmaceutical use thereof” (Sanofi, priority 2008, dated 2014).

The assay has as its target T1, sodium-proton exchanger of subtype 3 (NHE3) (Homo sapiens, UniProt P48764).
T1 construct: expressed in transfected cells
T1 sequence (P48764 26-834): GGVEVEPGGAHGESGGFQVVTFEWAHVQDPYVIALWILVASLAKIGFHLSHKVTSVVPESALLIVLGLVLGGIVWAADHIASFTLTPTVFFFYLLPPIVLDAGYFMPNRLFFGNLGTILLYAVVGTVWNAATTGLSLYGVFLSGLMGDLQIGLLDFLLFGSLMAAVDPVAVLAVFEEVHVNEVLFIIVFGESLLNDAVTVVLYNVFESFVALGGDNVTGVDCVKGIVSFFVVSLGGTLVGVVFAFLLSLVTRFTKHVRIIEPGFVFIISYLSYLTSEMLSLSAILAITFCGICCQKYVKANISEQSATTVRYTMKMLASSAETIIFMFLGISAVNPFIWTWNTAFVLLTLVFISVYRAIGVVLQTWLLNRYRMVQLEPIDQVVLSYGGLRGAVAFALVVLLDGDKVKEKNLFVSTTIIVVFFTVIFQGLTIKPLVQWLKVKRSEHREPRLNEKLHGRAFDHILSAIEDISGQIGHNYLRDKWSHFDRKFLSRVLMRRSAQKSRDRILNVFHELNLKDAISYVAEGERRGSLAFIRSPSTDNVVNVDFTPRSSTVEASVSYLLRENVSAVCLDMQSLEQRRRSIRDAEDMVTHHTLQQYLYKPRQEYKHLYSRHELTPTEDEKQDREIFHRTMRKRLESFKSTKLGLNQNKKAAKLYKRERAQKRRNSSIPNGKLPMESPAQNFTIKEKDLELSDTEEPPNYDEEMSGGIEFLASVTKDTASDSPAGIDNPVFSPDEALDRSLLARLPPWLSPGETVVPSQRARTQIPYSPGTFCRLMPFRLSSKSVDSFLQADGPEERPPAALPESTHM
Description: Recovery of intracellular pH (pHi) after acidification in LAP1 cells stably expressing NHE3 (BCECF fluorescence, FLIPR). Conditions: LAP1 cells stably expressing NHE3; pH recovery after acidification; range 1 is % inhibition at 10 μM; read-out: Activity range (inhibitory effect on NHE3). Type of assay: cell-based.

In the case of `N#Cc1c(F)cccc1O[C@@H]1c2ccccc2C[C@H]1N1CCC(CN)C1` (mixture of isomers) [Example 374, 2-[rac-trans-(1,2)-2-(3-aminomethylpyrrolidin-1-yl)indan-1-yloxy]-6-fluorobenzonitrile], the IC50 fell in the range of 1000 to 10000 nM. For `CCN(CC)[C@@H]1Cc2ccccc2[C@H]1Oc1cccc(NC(C)=O)c1` (racemic) [Example 637, N-[3-(rac-trans-(1,2)-2-diethylaminoindan-1-yloxy)phenyl]acetamide], the IC50 is 1000 to 10000 nM. Turning to `N[C@@H]1CCCN([C@H]2CCc3ccccc3[C@@H]2Oc2ccc(-n3cncn3)cc2)C1` (racemic) [Example 61, (R)-1-[rac-trans-(1,2)-1-(4-[1,2,4]triazol-1-ylphenoxy)-1,2,3,4-tetrahydronaphthalen-2-yl]piperidin-3-ylamine], the IC50 lay within 1000 to 10000 nM. As for `N#Cc1csc(-c2ccc(O[C@@H]3c4ccccc4C[C@H]3N3CCC[C@@H](N)C3)cc2)n1` (racemic) [Example 381, 2-{4-[rac-trans-(1,2)-2-((R)-3-aminopiperidin-1-yl)indan-1-yloxy]phenyl}thiazole-4-carbonitrile], the IC50 lay in the range of 1000 to 10000 nM. With `CC(=O)Nc1cccc(O[C@H]2c3cc(Cl)ccc3C[C@@H]2N2CCNCC2)c1` (racemic) [Example 657, N-[3-(rac-trans-(1,2)-6-chloro-2-piperazin-1-ylindan-1-yloxy)phenyl]acetamide], the IC50 lay in the range of 1000 to 10000 nM.

On to `Cn1ccn(-c2ccc(O[C@H]3c4cc(Cl)cc(Cl)c4C[C@@H]3N3CC[C@@H](O)C3)cc2)c1=O` [Example 331, 1-{4-[trans-(1S,2S)-4,6-dichloro-2-((R)-3-hydroxypyrrolidin-1-yl)indan-1-yloxy]phenyl}-3-methyl-1,3-dihydroimidazol-2-one], for which the IC50 is below 1000 nM. Regarding `N[C@H]1CCCN([C@H]2CCc3ccccc3[C@@H]2Oc2ccc(F)cc2-c2cc[nH]n2)C1` (racemic) [Example 205, (S)-1-{rac-trans-(1,2)-1-[4-fluoro-2-(1H-pyrazol-3-yl)phenoxy]-1,2,3,4-tetrahydronaphthalen-2-yl}piperidin-3-ylamine], the inhibition at 10 µM lay within 20 to 50%. With `Cc1c(Cl)cccc1O[C@@H]1c2ccccc2C[C@H]1N1C[C@H]2CNC[C@H]2C1` (racemic) [Example 6, 2-[rac-trans-(1,2)-1-(3-chloro-2-methylphenoxy)indan-2-yl]octahydropyrrolo[3,4-c]pyrrole], the IC50 lay within 1000 to 10000 nM. As to `Cc1nn(C)c(C)c1-c1ccc(O[C@H]2c3cc(Cl)ccc3C[C@@H]2N2CC[C@@H](O)C2)cc1` [Example 140, (R)-1-{trans-(1S,2S)-6-chloro-1-[4-(1,3,5-trimethyl-1H-pyrazol-4-yl)phenoxy]indan-2-yl}pyrrolidin-3-ol], the IC50 was in the range of 1000 to 10000 nM.

Regarding `N[C@H]1CCCN([C@H]2CCc3ccccc3[C@@H]2Oc2ccc(F)cc2-c2ccno2)C1` (racemic) [Example 178, (S)-1-[rac-trans-(1,2)-1-(4-fluoro-2-isoxazol-5-ylphenoxy)-1,2,3,4-tetrahydronaphthalen-2-yl]piperidin-3-ylamine], the inhibition at 10 µM lay within 20 to 50%. Take `NCC1CCN([C@@H]2Cc3ccccc3[C@H]2Oc2cccc(N3CCNCC3)c2)C1` (mixture of isomers) [Example 617, C-{1-[rac-trans-(1,2)-1-(3-piperazin-1-ylphenoxy)indan-2-yl]pyrrolidin-3-yl}methylamine]: the IC50 fell in the range of 1000 to 10000 nM. For the compound `CC(=O)Nc1cccc(O[C@H]2c3cc(Cl)cc(Cl)c3C[C@@H]2N2CCC[C@@H](N)C2)c1` [Example 690, N-{3-[trans-(1S,2S)-2-((R)-3-aminopiperidin-1-yl)-4,6-dichloroindan-1-yloxy]phenyl}acetamide], the IC50 is below 1000 nM. With `Cc1nnc(C)n1-c1ccc(O[C@H]2c3cc(Cl)ccc3C[C@@H]2N2CC[C@@H](F)C2)c(F)c1` [Example 563, 4-{4-[trans-(1S,2S)-6-chloro-2-((R)-3-fluoropyrrolidin-1-yl)indan-1-yloxy]-3-fluorophenyl}-3,5-dimethyl-4H-[1,2,4]triazole], the IC50 is below 1000 nM.
